These results are taken from PMC12454639, “Direct disassembly of α-syn preformed fibrils into α-syn monomers by an all-D-peptide” (NPJ Parkinson's Disease, 2025).

Square brackets hold non-standard residues; d marks the D form. Peptide text beside a SMILES is read from it.

Assay [1] has as its system α-syn monomer. Briefly: 100 kDa MWCO fractionation of de novo aggregation samples followed by ELISA. The class given is biochemical, Human. The conditions noted are these: 7 days, ELISA n = 3. As to the method:
(§1) Fig. 7 De novo aggregation analysis of α-syn in the presence and absence of SVD-1a. A De novo ThT assay of 10 µM α-syn with and without 20 µM SVD-1a. ThT fluorescence progression was measured in a 96-well non-binding half-area plate (Corning, USA) with a FLUOStar plate reader (BMG labtech, GE) at λex = 448 nm and λem = 482 nm with 300 rpm continuous orbital shaking between reads. For induction of aggregation, one borosilicate bead per well was added (d = 3 mm, Hilgenberg, GE). Data are shown as mean values with ±SD (n = 5). B CD secondary structure analysis of de novo aggregation samples. Samples were incubated as described in (A) without added ThT (n = 3) and subsequently pooled for CD analysis. Far-UV ellipticity of the samples was measured in a quartz cuvette (l = 10 mm) in a J-1100 CD-spectrometer (Jasco, GE). In addition to (A), a sample with 20 µM SVD-1a alone was incubated under identical conditions and later used as a reference for the sample with α-syn and SVD-1a. For this sample (α-syn + SVD-1a (after incubation)), the SVD-1a reference subtracted CD spectrum is shown. […] D α-Syn in the flow through (MWCO < 100 kDa) was quantified using an α-syn specific ELISA (BioLegend, Human α-Synuclein (Colorimetric), 448607, n = 3). E Retentate and flow-through samples were analyzed using SDS–PAGE with silver staining. […]

For assay [2], the system named is α-syn monomer. Nature of the assay: AFM of de novo aggregation endpoint samples. The class given is biochemical. Particulars: 10 µM α-syn + 20 µM SVD-1a. Here is the method:
as §1

Turning to `CC[C@@H](C)[C@@H](NC(=O)[C@@H](Cc1c[nH]cn1)NC(=O)[C@@H](CCC(=O)O)NC(=O)[C@@H](CCC(N)=O)NC(=O)[C@@H](Cc1c[nH]c2ccccc12)NC(=O)[C@@H](Cc1ccc(O)cc1)NC(=O)[C@H](NC(=O)[C@@H](CCC(=O)O)NC(=O)[C@@H](Cc1c[nH]cn1)NC(=O)[C@H](NC(=O)[C@H]1CCCN1C(=O)[C@@H](CC(C)C)NC(=O)[C@H](N)CCCNC(=N)N)[C@H](C)O)[C@H](C)O)C(=O)N[C@H](Cc1c[nH]c2ccccc12)C(=O)N[C@H](Cc1c[nH]cn1)C(=O)N[C@H](C)C(=O)N[C@H](CCCNC(=N)N)C(=O)N[C@H](CCCNC(=N)N)C(=O)N[C@H](CCCNC(=N)N)C(=O)N[C@H](CCCNC(=N)N)C(=O)N[C@H](CCCNC(=N)N)C(N)=O` [SVD-1a] (H-[dR][dL][dP][dT][dH][dE][dT][dY][dW][dQ][dE][dH][dI][dW][dH][dA][dR][dR][dR][dR][dR]-NH2), the “monomeric α-syn in flow-through” value in assay [1] (10 µM α-syn with 5, 10, 20 µM SVD-1a, controls ~3.7 µM before, ~0.3 µM after incubation without compound) is reported as “concentration-dependent stabilization of monomeric α-syn”. In assay [1] (20 µM SVD-1a, 10 µM α-syn), the “monomeric α-syn in flow-through vs non-pre-incubated control” value is on record as “restoring monomer levels in the eluate to those of the non-pre-incubated control”. For the same compound, the “fibrils in endpoint samples (AFM)” value in assay [2] is “clearly do not contain any fibrils”.
